Results: patent US8029764B2, “Methods for detection of colorectal cancer” (The Johns Hopkins University, priority 2001, dated 2011)

System: colorectal tissue transcripts
Assay: SAGE of normal, adenoma and cancer colorectal tissue (transcript tag counts)
Parameters: species or system human
In short: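 Tag counts reflect transcript abundance, each mRNA represented by a 15-base tag near its 3′ end. Excluding MHC tags, linkers and duplicate ditags, libraries were compared statistically: two each of normal epithelium, FAP-derived adenomas (>70% neoplastic) and carcinomas.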

[1] = normal colorectal tissue library 1
[2] = normal colorectal tissue library 2

Sequence	AD1 (SAGE tag count) (SAGE library AD1)	AD2 (SAGE tag count) (SAGE library AD2)	CA1 (SAGE tag count) (SAGE library CA1)	CA2 (SAGE tag count) (SAGE library CA2)	NC1 (SAGE tag count) (SAGE library NC1)	NC2 (SAGE tag count) (SAGE library NC2)	AD1 (SAGE tag count) (adenoma library 1)	AD2 (SAGE tag count) (adenoma library 2)	CA1 (SAGE tag count) (cancer library 1)	CA2 (SAGE tag count) (cancer library 2)	NC1 (SAGE tag count) [1]	NC2 (SAGE tag count) [2]
GGCTCGGGAT (chemistry not fully specified)	2	4	3	5	15	11						
CAGTGCGTTC (chemistry not fully specified)	0	0	3	0	12	3						
GCAGGAGGTG (chemistry not fully specified; the letters are possibly those of the target site)	0	0	0	1	2	13						
CTGACCTGTG (chemistry not fully specified)	48	18	16	46	88	130						
GTATTGGGGC (chemistry not fully specified)	0	0	0	0	5	7						
ATGGCACGGA (chemistry not fully specified; the letters are possibly those of the target site)	1	1	3	0	6	21						
GATGAATCCG (chemistry not fully specified)	2	2	1	2	12	14						
ACCTGCATCC (chemistry not fully specified)	0	0	0	0	0	12						
TACGGTGTGG (chemistry not fully specified)							2	2	1	0	7	13
GGCTGGGCCT (chemistry not fully specified)	14	5	10	8	46	25						
GCTGGCCCCG (chemistry not fully specified)	0	0	0	1	5	11						
GCCCAGGGCC (chemistry not fully specified; the letters are possibly those of the target site)	2	1	2	1	4	44						
TTGGACCTGG (chemistry not fully specified)							7	18	12	16	33	31
AAGAAGCAGG (chemistry not fully specified; the letters are possibly those of the target site)	3	4	1	3	8	16						
GGTGAAGAGG (chemistry not fully specified)	5	3	10	9	16	32						
ATACTCCACT (chemistry not fully specified)	0	0	10	3	82	59						
ACCCCCCCGC (chemistry not fully specified)	7	13	16	6	44	38						
GATATGTAAA (chemistry not fully specified)	0	0	0	0	1	10						
CCGCTGCACT (chemistry not fully specified)	55	46	37	30	127	102						
GCAAGAAAGT (chemistry not fully specified)	0	4	0	1	48	0						
TTTTCTGCAT (chemistry not fully specified)							1	0	1	2	8	7
CCCCCGCGGA (chemistry not fully specified)	6	11	4	12	33	25						
GCGCAGAGGT (chemistry not fully specified)	1	0	0	1	2	16						
TGGGGAGAGG (chemistry not fully specified)							20	7	3	7	43	18
TTTTTACTGA (chemistry not fully specified)							10	10	8	1	32	19
GCCTGGCCAT (chemistry not fully specified)	4	6	10	14	26	34						
ATGGTGGGGG (chemistry not fully specified)	11	9	1	2	25	30						
CGGTGGGACC (target site or template, no part of the molecule; chemistry not given here)	1	1	3	3	7	14						
